# Source: publication PMC9241302, “Identification of 2-(4-N,N-Dimethylaminophenyl)-5-methyl-1-phenethyl-1H-benzimidazole targeting HIV-1 CA capsid protein and inhibiting HIV-1 replication in cellulo” (BMC Pharmacology & Toxicology, 2022)
# Where two headings read alike, the source gives them in different places.
# How the values were obtained:
# HIV-1 NL4-3 Ba-L = assay: microbe, parasite or virus in culture; format: cell-based
# Procedure: Compounds were first dissolved in DMSO to reach a concentration of 20 mM. They were further diluted to a 200 µM working stock and then further diluted to reach a starting concentration of 10 µM in the culture plate. U87-CD4-CCR5 cells were seeded in quadruplicate at 4000 cells/well in a final volume of 100 µL. The next day, 24 µL of the compound was added in serial 1:2 dilutions to the cells. Two hours later, 25 µL of infectious virus (NL4-3 Ba-L) were added to the cells with a TCID50 of 250. AZT at 10 µM was included as an inhibition control. The medium was replenished in the presence of compounds once every 3 to 4 days. The supernatant was collected every 3–4 days and analyzed for virus production by an in-house p24 capture ELISA. IC50 was calculated using “Quest Graph™ IC50 Calculator” (AAT Bioquest, Inc., https://www.aatbio.com/tools/ic50-calculator). Cytotoxicity of the compound was tested on U87-CD4-CCR5 cells in parallel by MTT assay (at the same protocol as in Sect. 3.5 but after 11 days of incubation))[39].
# [1] = Cytotoxicity in human macrophages (PMA-stimulated THP-1 monocytes, MTT); format: cell-based; details: PMA-stimulated THP-1 monocytes (human macrophages), 48hs
# Procedure: (§1) TZM-bl cells, U87-CD4-CCR5, murine macrophages (J774.1), and THP-1 monocytes (ATCC®TIB-202™) were grown following ATCC recommendations. Cells were seeded in a 96-well plate (10^4 cells in 200 µL culture medium) and incubated at 37 °C in a 5% CO2 atmosphere for 48 h, to allow cell adhesion before drug testing. For stimulation (THP-1 monocytes), cells were incubated with 100 nM of phorbol 12-myristate 13-acetate (PMA) for 48 h. […] A vehicle for control (0.4% DMSO) and negative wells (cells in medium) was used in each test. […] After removing the medium, formazan crystals were dissolved in 180 µL of DMSO and 20µL of MTT buffer (0.1 M glycine, 0.1 M NaCl, 0.5 mM EDTA, pH 10.5), and the absorbance at 560 nm was measured. […] Tests were performed in triplicate, in two independent experiments.
# monomeric HIV-1 CA = target: T1, monomeric HIV-1 CA (Human immunodeficiency virus type 1 group M subtype B, UniProt P12493); assay: Affinity for HIV-1 CA by microscale thermophoresis (MST); format: binding
# T1 construct: the capsid protein (CA) of the Gag polyprotein; made in house
# Procedure: The affinity of compound 696 for HIV-1 CA in vitro was measured by microscale thermophoresis (MST) as described previously for FIV CA [31]. Due to its intrinsic autofluorescence interfering with MST, the binding of compound 314 to CA was measured using isothermal microcalorimetry (ITC) with a Microcal iTC200 calorimeter (Malvern Instruments, Worcestershire, UK). The calorimeter cell contained 200 µL of recombinant HIV-1 CA (kind gifted by Drs Verrier and Coiffier) at 0.78 mg/mL in phosphate buffer (NaH2PO4/Na2HPO4) 50 mM pH 7.5, NaCl 100 mM, 1% DMSO [v/v]. Compound 314 at 200 µM was then injected sequentially into the calorimeter cell (injection #1: 1 µL, injections #2-#20: 2 µL) at 120 s intervals. Data were analyzed using the OriginLab8.5® software according to the manufacturer’s instructions.
# human red blood cells = assay: Red blood cell lysis assay; format: cell-based; details: Erythrocyte, 24hs
# Procedure: Human blood (blood discarded from the blood bank) collected in sodium citrate solution (3.8%) was centrifuged at 200 × g for 10 min at 4 °C. The plasma supernatant was removed and erythrocytes were suspended in ice-cold PBS. The cells were again centrifuged at 200 × g for 10 min at 4 °C. This procedure was repeated two more times to ensure the removal of any released hemoglobin. Once the supernatant was removed after the last wash, the cells were suspended in PBS to 2% w/v red blood cell solution. […] Ten replicates for each concentration were done and incubated for 24 h at 37 °C before analysis. Complete hemolysis was attained using neat water yielding the 100% control value (positive control). The release of hemoglobin into the supernatant was determined spectrophotometrically at 405 nm using a multiplate reader VarioskanTM Flash Multimode Reader (Thermo Scientific, MA, US). Results are expressed as the percentage of total hemoglobin released in the presence of the compounds. This percentage was calculated using the equation percentage hemolysis (%) = [(A1 − A0)/(Aw)] × 100, where A1 is the absorbance at 405 nm of the test sample at t = 24 h, A0 is the absorbance at 405 nm of the test sample at t = 0 h, and Aw is the absorbance at 405 nm of the positive control (water) at t = 24 h. […] The experiments were done in quintuplicate. AmpB was used as a positive control.
# [2] = Liver fraction stability (thin-layer chromatography); format: in vitro ADME, rat
# Procedure: For the determination of liver fraction stability, rat liver microsomal and cytosolic proteins were used (MOLTOX™ manufactures products, North Carolina, US). Rat liver microsomal and cytosolic proteins were used according to the manufacturer’s recommendations and the methodology previously described. […] The final concentration of 696 in the aqueous medium was 100 µM and was prepared from a stock solution in DMSO. The solutions were further homogenized and incubated at 37 °C for 1 to 4 h following the OECD recommendation for drug development. After that, thin-layer chromatography of ethyl acetate extracts was performed to evaluate the presence of metabolites.
# [3] = Cytotoxicity in murine macrophages (MTT); format: cell-based; details: mouse, J774.1 murine macrophages; 48 hs
# Procedure: as §1
compound,measurement,setting,value
"Cc1ccc2c(c1)nc(-c1ccc(N(C)C)cc1)n2CCc1ccccc1 [compound 696, 2-(4-N,N-dimethylaminophenyl)-5-methyl-1-phenethyl-1H-benzimidazole]",EC50/IC50,HIV-1 NL4-3 Ba-L,> 21
same,IC50,"HIV-1 NL4-3 Ba-L; Human immunodeficiency virus 1, U87/CD4/CCR5, 264 h, read-out: IC50, inhibition of HIV-1 replication",3 µM
same,IC50,"HIV-1 NL4-3 Ba-L; Human immunodeficiency virus 1, U87/CD4/CCR5, read-out: IC50 in U87 (μM)",2.3 ± 0.6 µM
same,inhibition of HIV-1 replication (in words),"HIV-1 NL4-3 Ba-L; U87-CD4-CCR5 cells, serial 1:2 dilutions from 10 µM",clear dose–response inhibition
same,inhibition of HIV-1 replication,"HIV-1 NL4-3 Ba-L; U87-CD4-CCR5 cells, two highest concentrations tested, after 11 days",more than 80%
same,selective activity between mammalian cells and antiviral activity,HIV-1 NL4-3 Ba-L; cytotoxicity EC50 vs antiviral IC50,at least 10 times
same,EC50 at 48 h,[1],> 100 µM
same,Kd,monomeric HIV-1 CA,69 ± 6 µM
same,EC50,human red blood cells,> 100 µM
same,metabolic stability (in words),[2],high metabolic stability
same,stability under microsomal and cytosolic fraction derived from rat liver,"[2]; 100 µM, 37 °C, TLC, absence of new metabolites",stable for 4 h
same,half-life at 100 µM,"[2]; rat, rat liver microsomes, read-out: Metabolic stability, half-life (t1/2)",> 240 min
same,EC50 at 48 h,[3],> 50 µM
